ChEMBL document CHEMBL3352542, “Synthesis, biological evaluation and molecular modeling study of 2-(1,3,4-thiadiazolyl-thio and 4-methyl-thiazolyl-thio)-quinazolin-4-ones as a new class of DHFR inhibitors” (Bioorg Med Chem Lett, 2014)
Active and inactive are the calls of the source. No cut-off for these calls is given here.

How the values were obtained:
NCI-H226 = experiment: Growth inhibition of human NCI-H226 cells at 10 uM after 48 hrs; assay type: functional
CAKI-1 = experiment: Growth inhibition of human CAKI-1 cells at 10 uM after 48 hrs; assay type: functional
SF-539 = experiment: Growth inhibition of human SF539 cells at 10 uM after 48 hrs; assay type: functional
K562 = experiment: Growth inhibition of human K562 cells at 10 uM after 48 hrs; assay type: functional
OVCAR-8 = experiment: Growth inhibition of human OVCAR8 cells at 10 uM after 48 hrs; assay type: functional
A549 = experiment: Growth inhibition of human A549 cells at 10 uM after 48 hrs; assay type: functional
ACHN = experiment: Growth inhibition of human ACHN cells at 10 uM after 48 hrs; assay type: functional
SF-268 = experiment: Growth inhibition of human SF268 cells at 10 uM after 48 hrs; assay type: functional
Bacillus subtilis = experiment: Antimicrobial activity against Bacillus subtilis assessed as inhibition zone at 200 ug/disk after 24 hrs by disc-diffusion method; assay type: functional; conditions: read-out: IZ
NCI-H522 = experiment: Growth inhibition of human NCI-H522 cells at 10 uM after 48 hrs; assay type: functional
Pseudomonas aeruginosa = experiment: Antimicrobial activity against Pseudomonas aeruginosa assessed as inhibition zone at 200 ug/disk after 24 hrs by disc-diffusion method; assay type: functional; conditions: read-out: IZ
NCI-H23 = experiment: Growth inhibition of human NCI-H23 cells at 10 uM after 48 hrs; assay type: functional
MDA-MB-435 = experiment: Growth inhibition of human MDA-MB-435 cells at 10 uM after 48 hrs; assay type: functional
HOP-92 = experiment: Growth inhibition of human HOP92 cells at 10 uM after 48 hrs; assay type: functional
BT-549 = experiment: Growth inhibition of human BT549 cells at 10 uM after 48 hrs; assay type: functional
Hs-578T = experiment: Growth inhibition of human Hs 578T cells at 10 uM after 48 hrs; assay type: functional
CCRF-CEM = experiment: Growth inhibition of human CCRF-CEM cells at 10 uM after 48 hrs; assay type: functional
HCC 2998 = experiment: Growth inhibition of human HCC2998 cells at 10 uM after 48 hrs; assay type: functional
Candida albicans = experiment: Antimicrobial activity against Candida albicans assessed as inhibition zone at 200 ug/disk after 24 hrs by disc-diffusion method; assay type: functional; conditions: read-out: IZ
RXF 393 = experiment: Growth inhibition of human RXF393 cells at 10 uM after 48 hrs; assay type: functional
UACC-257 = experiment: Growth inhibition of human UACC257 cells at 10 uM after 48 hrs; assay type: functional
U-251 = experiment: Growth inhibition of human U251 cells at 10 uM after 48 hrs; assay type: functional
Staphylococcus aureus = experiment: Antimicrobial activity against Staphylococcus aureus assessed as inhibition zone at 200 ug/disk after 24 hrs by disc-diffusion method; assay type: functional; conditions: read-out: IZ
SW-620 = experiment: Growth inhibition of human SW620 cells at 10 uM after 48 hrs; assay type: functional
SR = experiment: Growth inhibition of human SR cells at 10 uM after 48 hrs; assay type: functional
HL-60(TB) = experiment: Growth inhibition of human HL-60(TB) cells at 10 uM after 48 hrs; assay type: functional
UACC-62 = experiment: Growth inhibition of human UACC62 cells at 10 uM after 48 hrs; assay type: functional
M14 = experiment: Growth inhibition of human M14 cells at 10 uM after 48 hrs; assay type: functional
OVCAR-4 = experiment: Growth inhibition of human OVCAR4 cells at 10 uM after 48 hrs; assay type: functional
COLO 205 = experiment: Growth inhibition of human COLO205 cells at 10 uM after 48 hrs; assay type: functional
HCT-15 = experiment: Growth inhibition of human HCT15 cells at 10 uM after 48 hrs; assay type: functional
UO-31 = experiment: Growth inhibition of human UO31 cells at 10 uM after 48 hrs; assay type: functional
SK-MEL-5 = experiment: Growth inhibition of human SK-MEL-5 cells at 10 uM after 48 hrs; assay type: functional
MDA-MB-468 = experiment: Growth inhibition of human MDA-MB-468 cells at 10 uM after 48 hrs; assay type: functional
PC-3 = experiment: Growth inhibition of human PC3 cells at 10 uM after 48 hrs; assay type: functional
OVCAR-3 = experiment: Growth inhibition of human OVCAR3 cells at 10 uM after 48 hrs; assay type: functional
NCI/ADR-RES = experiment: Growth inhibition of human NCI-ADR-RES cells at 10 uM after 48 hrs; assay type: functional
OVCAR-5 = experiment: Growth inhibition of human OVCAR5 cells at 10 uM after 48 hrs; assay type: functional
RPMI-8226 = experiment: Growth inhibition of human RPMI8226 cells at 10 uM after 48 hrs; assay type: functional
Dihydrofolate reductase = target: T1, Dihydrofolate reductase (Bos taurus, UniProt P00376); experiment: Inhibition of bovine liver DHFR
T1 sequence (P00376 whole entry): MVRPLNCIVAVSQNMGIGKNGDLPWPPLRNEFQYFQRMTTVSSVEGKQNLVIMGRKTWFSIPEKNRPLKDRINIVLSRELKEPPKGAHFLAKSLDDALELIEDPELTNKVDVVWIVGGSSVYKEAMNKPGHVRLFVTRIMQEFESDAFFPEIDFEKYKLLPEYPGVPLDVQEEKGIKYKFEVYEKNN

MOLT-4 = experiment: Growth inhibition of human MOLT4 cells at 10 uM after 48 hrs; assay type: functional
MCF7 = experiment: Growth inhibition of human MCF7 cells at 10 uM after 48 hrs; assay type: functional
KM12 = experiment: Growth inhibition of human KM12 cells at 10 uM after 48 hrs; assay type: functional
786-0 = experiment: Growth inhibition of human 786-0 cells at 10 uM after 48 hrs; assay type: functional
NCI-H460 = experiment: Growth inhibition of human NCI-H460 cells at 10 uM after 48 hrs; assay type: functional
LOX IMVI = experiment: Growth inhibition of human LOXIMVI cells at 10 uM after 48 hrs; assay type: functional
Escherichia coli = experiment: Antimicrobial activity against Escherichia coli assessed as inhibition zone at 200 ug/disk after 24 hrs by disc-diffusion method; assay type: functional; conditions: read-out: IZ
SN12C = experiment: Growth inhibition of human SN12C cells at 10 uM after 48 hrs; assay type: functional
HT-29 = experiment: Growth inhibition of human HT-29 cells at 10 uM after 48 hrs; assay type: functional
HCT-116 = experiment: Growth inhibition of human HCT116 cells at 10 uM after 48 hrs; assay type: functional
A498 = experiment: Growth inhibition of human A498 cells at 10 uM after 48 hrs; assay type: functional
SF-295 = experiment: Growth inhibition of human SF295 cells at 10 uM after 48 hrs; assay type: functional
TK-10 = experiment: Growth inhibition of human TK10 cells at 10 uM after 48 hrs; assay type: functional
Malme-3M = experiment: Growth inhibition of human MALME-3M cells at 10 uM after 48 hrs; assay type: functional
SNB-19 = experiment: Growth inhibition of human SNB19 cells at 10 uM after 48 hrs; assay type: functional
MDA-MB-231 = experiment: Growth inhibition of human MDA-MB-231 cells at 10 uM after 48 hrs; assay type: functional
SNB-75 = experiment: Growth inhibition of human SNB75 cells at 10 uM after 48 hrs; assay type: functional
T47D = experiment: Growth inhibition of human T47D cells at 10 uM after 48 hrs; assay type: functional

Compound: Cc1ccc(-n2c(Sc3sc(N)nc3C)nc3ccc(C)cc3c2=O)cc1
- growth inhibition (GI) (NCI-H226): inactive
- growth inhibition (GI) (CAKI-1): inactive
- growth inhibition (GI) (SF-539): inactive
- growth inhibition (GI) (K562): inactive
- growth inhibition (GI) (OVCAR-8): inactive
- growth inhibition (GI) (A549): inactive
- growth inhibition (GI) (ACHN): inactive
- growth inhibition (GI) (SF-268): inactive
- zone of inhibition at 200 µg/disc (Bacillus subtilis): 8 mm
- growth inhibition (GI) (NCI-H522): inactive
- zone of inhibition at 200 µg/disc (Pseudomonas aeruginosa): 8 mm
- growth inhibition (GI) (NCI-H23): inactive
- growth inhibition (GI) (MDA-MB-435): inactive
- growth inhibition (GI) (HOP-92): inactive
- growth inhibition (GI) (BT-549): inactive
- growth inhibition (GI) (Hs-578T): inactive
- growth inhibition (GI) (CCRF-CEM): inactive
- growth inhibition (GI) (HCC 2998): inactive
- zone of inhibition at 200 µg/disc (Candida albicans): 8 mm
- growth inhibition (GI) (RXF 393): inactive
- growth inhibition (GI) (UACC-257): inactive
- growth inhibition (GI) (U-251): inactive
- zone of inhibition at 200 µg/disc (Staphylococcus aureus): 8 mm
- growth inhibition (GI) (SW-620): inactive
- growth inhibition (GI) (SR): inactive
- growth inhibition (GI) (HL-60(TB)): inactive
- growth inhibition (GI) (UACC-62): inactive
- growth inhibition (GI) (M14): inactive
- growth inhibition (GI) (OVCAR-4): inactive
- growth inhibition (GI) (COLO 205): inactive
- growth inhibition (GI) (HCT-15): inactive
- growth inhibition (GI) (UO-31): inactive
- growth inhibition (GI) (SK-MEL-5): inactive
- growth inhibition (GI) (MDA-MB-468): inactive
- growth inhibition (GI) (PC-3): inactive
- growth inhibition (GI) (OVCAR-3): inactive
- growth inhibition (GI) (NCI/ADR-RES): inactive
- growth inhibition (GI) (OVCAR-5): inactive
- growth inhibition (GI) (RPMI-8226): inactive
- IC50 (Dihydrofolate reductase): 7 µM
- growth inhibition (GI) (MOLT-4): inactive
- growth inhibition (GI) (MCF7): inactive
- growth inhibition (GI) (KM12): inactive
- growth inhibition (GI) (786-0): inactive
- growth inhibition (GI) (NCI-H460): inactive
- growth inhibition (GI) (LOX IMVI): inactive
- zone of inhibition at 200 µg/disc (Escherichia coli): 8 mm
- growth inhibition (GI) (SN12C): inactive
- growth inhibition (GI) (HT-29): inactive
- growth inhibition (GI) (HCT-116): inactive
- growth inhibition (GI) (A498): inactive
- growth inhibition (GI) (SF-295): inactive
- growth inhibition (GI) (TK-10): inactive
- growth inhibition (GI) (Malme-3M): inactive
- growth inhibition (GI) (SNB-19): inactive
- growth inhibition (GI) (MDA-MB-231): inactive
- growth inhibition (GI) (SNB-75): inactive
- growth inhibition (GI) (T47D): inactive
